The text below walks through data of patent publication US20230105577A1, “A TOPICAL COMPOSITION” (Conopco, Inc., d/b/a UNILEVER, priority 2020, published 2023).

Counter-ions that a name gives are not always drawn.

One assay has as its system M. furfur (CBS1878). Particulars: for The range of concentration of the atractylenolide compound (ppm) where the ΣFIC was less than 0.9 / The range of ratio of atractylenolide compound/octopirox (w/w) where ΣFIC was less than 0.9: in combination with octopirox, 32° C.
The subject of the next assay is M. furfur (CBS 1878). Kind of assay: Zone of inhibition (ZOI) assay. Type of assay: cell-based, Malassezia furfur. As to conditions: 0.1% OCT, 10 μL on 6 mm filter paper, 32° C., 2 days. As to the method:
Method 2: Zone Off Inhibition (ZOI) Assay
Atractylodes macrocephala (AM) root water extract (purchased from Huzhou Liaoyuan, China) was prepared at concentration of 0.75%, and 1.5% in 50% water/DMSO. Octopirox (OCT) was prepared at concentration of 0.1% and 0.2% in DMSO. Prepare Malassezia growth agar plates, and then spread 200 μL M. furfur (10^6 CFU) (CBS 1878) on to the agar. Several sterile filter papers (diameter=6 mm) were placed on the agar plate. 10 μL of compound solutions were added on the filter paper. The plates were Incubate at 32° C. for 2 days. Clear growth inhibition zone was recorded.
Synergistic antimicrobial activity:Inhibition distance for compound1+compound2combination>Inhibition distance for compound1 alone+Inhibition distance for compound2 alone

Protocol for M. furfur (CBS1878): Method 1: ΣFIC Assay Against M. furfur.
M. furfur (CBS1878) was maintained on MD agar plate (Solution A) was cultured into 20 ml of growth medium Pityrosporum Broth (PB, Solution B). They are then incubated at 32° C. for 48 hours with shaking. Then, 1 ml of the first broth culture is transferred into 9 ml of fresh PB and incubated at 32° C. for 48 hours with shaking. The final culture should contain 2 to 6×10^6 cells/ml. This is achieved by diluting using PB to 5×10^5 cells/ml.
Octopirox® was serially diluted (2-fold) to prepare in a range of 60-1000 ppm in the growth medium. Testing atractylenolide compound (stock: 4 mg/ml) was 2-fold serially diluted in DMSO to prepare in a range of 40000-10 ppm. Binary combinations of octopirox and the testing compound were prepared in 96-well plate by mixing 10 μl of octopirox solution with 10 μl of testing compound. The solution in each well were further mixed with 180 μl of M. furfur strain suspensions in PB.
The final cell density in the testing plate is around 5*10^4 cell/ml. The final concentration of each ingredient in ppm (parts per million) after (20-fold dilution) was as follows. Each of these concentrations was tried out to determine the FIC value for (either of) Octopirox® in combination with one of the atractylenolide compound.
Multi-channel pipette was used to mix the compound and strain suspension. Thereafter the 96-well plates were incubated in an incubator. In accordance with the test protocols that were followed, M. furfur was incubated aerobically at 32° C. for 1 day. Thereafter 20 μl alamar blue (0.1%) was dispensed in each well and the procedure of incubation (as abovementioned) was repeated. Finally, the change in colour of the indicator was monitored to check for visible signs of microbial growth or inhibition of the growth. If the colour changed to red it indicated growth (of microbes) and blue indicated no growth or inhibition of growth.
The MIC is defined as the absolute lowest concentration of active that provides complete microbial growth inhibition as indicated by the blue color of alamar blue under the tested condition.
The procedure is as follows:
The parameter can be defined as follows:
After all the observations were recorded and tabulated, the Fractional Inhibition Concentration (FIC) was calculated.
This parameter is defined as follows:
ΣFIC=FIC(component1)+FIC(component2)
In this study, we have adopted a liberal approach defining any binary mixture with ΣFIC<0.9 as showing evidence of synergistic behavior.
The experiments were carried out over a concentration range of ingredients as below:

For `C=C1CCC[C@]2(C)C[C@@H]3OC(=O)C(C)=C3C[C@@H]12` [Atractylenolide II, atractylenolide II], in the assay on M. furfur (CBS1878), the “The range of concentration of the atractylenolide compound (ppm) where the ΣFIC was less than 0.9” value is listed as 31.25-1000 ppm and the “The range of ratio of atractylenolide compound/octopirox (w/w) where ΣFIC was less than 0.9” value is 5-2560 w/w. In the case of “zinc pyrithione [ZPTO, reference compound]”, the “Synergistic antimicrobial activity in combination with Octopirox® (ΣFIC assay)” value in the assay with M. furfur (CBS1878) (binary combination with Octopirox® 0-50 ppm) is “cannot interact synergistically”. Consider `Cc1cc(CC(C)CC(C)(C)C)n(O)c(=O)c1` (stereo not shown) [OCT, 1-hydroxy-4-methyl-6-(2,4,4-trimethylpentyl)-2(1H) pyridinone monoethanolamine salt], for which the “Inhibition distance (mm) = (Inhibition zone diameter − filter paper diameter)/2” value with M. furfur (CBS 1878) (0.75% AM) and in the assay with M. furfur (CBS 1878) (1.5% AM) was 2.7 mm each time. In the case of `C=C1CCC[C@]2(C)C=C3OC(=O)C(C)=C3C[C@@H]12` [Atractylenolide I, atractylenolide I], in the assay with M. furfur (CBS1878), the “The range of concentration of the atractylenolide compound (ppm) where the ΣFIC was less than 0.9” value is reported as 31.25-500 ppm and the “The range of ratio of atractylenolide compound/octopirox (w/w) where ΣFIC was less than 0.9” value is reported as 5-1280 w/w.
